Experimental data from ChEMBL document CHEMBL1275357, “Inhibition of Helicobacter pylori aminoacyl-tRNA amidotransferase by chloramphenicol analogs” (Bioorg Med Chem, 2010).

Assay: Competitive inhibition of Helicobacter pylori aminoacyl-tRNA […] GatCAB
Work on CS(=O)(=O)CC[C@H](N)C(=O)N[C@H](CO)[C@H](O)c1ccc([N+](=O)[O-])cc1 yielded a Ki of 27 µM. With CS(=O)(=O)CC[C@H](N)C(=O)N[C@H](CO)[C@H](O)c1ccc(S(C)(=O)=O)cc1 the Ki was 120 µM. CS(=O)(=O)CC[C@H](N)C(=O)N[C@H](CO)[C@H](O)c1ccccc1 showed a Ki of 400 µM. Compound CS(=O)(=O)CC[C@H](N)C(=O)N[C@@H](CO)[C@@H](O)c1ccc([N+](=O)[O-])cc1 has a Ki of 160 µM. Compound CS(=O)(=O)CC[C@H](N)C(=O)N[C@H](CO)[C@@H](O)c1ccc([N+](=O)[O-])cc1 has a Ki of 2800 µM. Compound CS(=O)(=O)CC[C@H](N)C(=O)N[C@@H](CO)[C@H](O)c1ccc([N+](=O)[O-])cc1 has a Ki of 370 µM. CN(C)c1ncnc2c1ncn2[C@@H]1O[C@H](CO)[C@@H](NC(=O)[C@@H](N)CCS(C)(=O)=O)[C@H]1O gave a Ki of 4 µM. For O=C(N[C@H](CO)[C@H](O)c1ccc([N+](=O)[O-])cc1)C(Cl)Cl [CHLORAMPHENICOL], the Ki was 1850 µM.
